Where “and” joins values, the source holds several entries; their conditions need not be identical. Equal values may be shown once. Entries after “also recorded” stand apart in the source; their conditions may differ. Where a name gives a salt, the structure may show the parent alone. Read-outs that look alike come from different tables or passages of the source.
What was measured:
[1] = target: T1, rMAO-A (Rattus norvegicus, UniProt P21396); assay: rat MAO-A inhibition, kynuramine spectrophotometric assay; format: biochemical; details: rat brain homogenates; for inhibition at 10 µM: read-out: MAO-A % inhibition at 10 µM
T1 construct: from tissue; host or cells: rat brain mitochondrial homogenate
T1 sequence (P21396 1-526): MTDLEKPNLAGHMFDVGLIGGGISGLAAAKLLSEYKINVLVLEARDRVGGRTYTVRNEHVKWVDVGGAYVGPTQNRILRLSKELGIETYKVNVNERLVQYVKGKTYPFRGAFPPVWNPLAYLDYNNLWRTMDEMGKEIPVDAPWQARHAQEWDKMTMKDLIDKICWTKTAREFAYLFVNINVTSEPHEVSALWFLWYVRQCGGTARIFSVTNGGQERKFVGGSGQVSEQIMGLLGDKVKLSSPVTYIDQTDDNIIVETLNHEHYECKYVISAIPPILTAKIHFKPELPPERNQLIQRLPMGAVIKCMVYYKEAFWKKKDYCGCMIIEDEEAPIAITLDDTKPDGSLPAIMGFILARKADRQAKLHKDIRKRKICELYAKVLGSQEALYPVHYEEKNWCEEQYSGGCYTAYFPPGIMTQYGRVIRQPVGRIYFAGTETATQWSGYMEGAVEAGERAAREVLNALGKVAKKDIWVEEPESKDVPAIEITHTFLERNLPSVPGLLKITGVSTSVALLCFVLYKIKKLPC
Experimental: (§1) MAO inhibitory activities were measured on rat brain mitochondrial homogenates [21].
(§2) The rMAO inhibitory activity of compounds in Table 1 was assessed using a continuous spectrophotometric assay [28], monitoring the rate of oxidation of the nonselective nonfluorescent MAO substrate kynuramine to 4-hydroxyquinoline, as previously reported [21]. […] Finally, IC50 values were determined by nonlinear regression of MAO inhibition vs. -log of the concentration plots, using the program Origin, Version 6.0 (Microcal Software Inc., Northampton, MA, USA).

[2] = target: T2, rMAO-B (Rattus norvegicus, UniProt P19643); assay: rat MAO-B inhibition, kynuramine spectrophotometric assay; format: biochemical; details: for inhibition at 10 µM: read-out: MAO-B % inhibition at 10 µM
T2 construct: from tissue; host or cells: rat brain mitochondrial homogenate
T2 sequence (P19643 1-520): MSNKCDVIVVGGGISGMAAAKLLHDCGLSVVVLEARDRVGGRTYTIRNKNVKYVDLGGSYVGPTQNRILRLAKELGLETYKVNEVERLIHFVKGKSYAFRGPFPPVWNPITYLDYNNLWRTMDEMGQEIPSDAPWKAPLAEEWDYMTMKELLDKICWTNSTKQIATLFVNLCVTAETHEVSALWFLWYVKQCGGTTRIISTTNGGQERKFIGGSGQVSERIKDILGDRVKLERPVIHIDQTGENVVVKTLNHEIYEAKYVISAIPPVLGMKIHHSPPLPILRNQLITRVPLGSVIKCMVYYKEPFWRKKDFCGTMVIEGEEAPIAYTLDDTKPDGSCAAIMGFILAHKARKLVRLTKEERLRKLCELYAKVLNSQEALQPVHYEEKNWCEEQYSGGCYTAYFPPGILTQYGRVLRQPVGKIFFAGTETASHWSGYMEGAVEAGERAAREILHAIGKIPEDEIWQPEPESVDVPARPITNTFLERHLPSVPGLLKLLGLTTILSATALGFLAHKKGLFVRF
Experimental: as §1, §2

[3] = target: T3, electric eel AChE (eeAChE) (Electrophorus electricus, UniProt O42275); assay: biochemical
T3 construct: purchased Sigma Aldrich, Milan, Italy

[4] = target: T4, equine serum butyrylcholinesterase (esBChE) (Equus caballus, UniProt P81908); assay: BChE inhibition, Ellman's method; format: biochemical; details: read-out: BChE % inhibition at 10 µM
T4 construct: BChE from equine serum (13 U/mg; Sigma); purchased Sigma; host or cells: equine serum
Experimental: 2H-Chromen-2-ones 3a–m and 8 were evaluated as inhibitors of electric eel AChE (eeAChE), equine serum butyrylcholinesterase (esBChE) and rat MAOs (rMAO-A and rMAO-B). In vitro enzymatic assays on ChEs were accomplished through the well-known spectrophotometric Ellman’s method [20].

[5] = system: MDCKII-MDR1 cells
[6] = system: SH-SY5Y cells; assay: Cytotoxicity, MTT assay; format: cell-based; details: 24 h incubation, 0.1–50 µM
Experimental: Human neuroblastoma cells SH-SY5Y were maintained at 37 °C in a humidified incubator containing 5% CO2 in DMEM nutrient (Lonza) supplemented with 10% heat inactivated FBS, 2 mM L-glutamine, 100 U/mL penicillin and 100 µg/mL streptomycin. Cells were dispensed into 96-well microtiter plates at a density of 10,000 cells/well. […] Then, the plates were incubated at 37 °C for 24 h. An amount of 10 µL of 0.5% w/v MTT was further added to each well, and the plates were incubated for an additional 3 h at 37 °C. Finally, the cells were lysed by the addition of 100 µL of DMSO/EtOH 1:1 (v/v) solution.
Untreated cells were used as the control.

[7] = system: SH-SY5Y cells; assay: Neuroprotection against oxidative stress insults, MTT assay; format: cell-based, human
Experimental: Therefore, a preliminary evaluation of the cytotoxicity and neuroprotective efficacy of this hit compound was undertaken in the human SH-SY5Y neuroblastoma cell line by following the 3-(4,5-dimethylthiazol-2-yl)-2,5-diphenyl-tetrazolium bromide (MTT) assay [22].
Human neuroblastoma SH-SY5Y cells were dispensed into 96-well microtiter plates at a density of 10,000 cells/well. […] The cell viability was determined by the MTT assay and analyzed as above described. Each compound was tested in triplicate, and the experiments were repeated three times. Statistical significance was assigned to p < 0.01 and calculated using a one-way analysis of variance (ANOVA) followed by the Bonferroni post hoc tests (GraphPad Prism vers. 5).
Results are expressed as the percentage of viable cells, and data represent the means ± SD (n = 3).

[8] = system: P-gp (MDR1); assay: in vitro; details: dog, MDCK-MDR1, pH 7.4
[9] = from electric eel, read-out: AChE IC50
[10] = determined after 30 min pre-incubation

T3 sequence (O42275 24-633): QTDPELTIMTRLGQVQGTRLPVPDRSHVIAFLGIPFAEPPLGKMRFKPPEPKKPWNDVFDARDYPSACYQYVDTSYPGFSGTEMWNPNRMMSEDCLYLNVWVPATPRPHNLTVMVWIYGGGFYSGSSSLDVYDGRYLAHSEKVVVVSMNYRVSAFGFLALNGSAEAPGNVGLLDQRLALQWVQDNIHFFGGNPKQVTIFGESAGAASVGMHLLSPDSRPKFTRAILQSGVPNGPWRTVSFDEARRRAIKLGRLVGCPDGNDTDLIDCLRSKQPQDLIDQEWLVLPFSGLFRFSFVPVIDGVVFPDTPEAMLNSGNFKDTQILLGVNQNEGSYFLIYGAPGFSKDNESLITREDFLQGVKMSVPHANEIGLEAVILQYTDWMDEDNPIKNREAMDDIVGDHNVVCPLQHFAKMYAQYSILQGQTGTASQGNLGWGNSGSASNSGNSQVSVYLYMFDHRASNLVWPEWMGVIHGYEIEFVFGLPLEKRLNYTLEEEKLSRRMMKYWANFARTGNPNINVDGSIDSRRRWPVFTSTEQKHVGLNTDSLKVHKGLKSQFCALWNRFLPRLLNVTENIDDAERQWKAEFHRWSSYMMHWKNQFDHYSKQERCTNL
T4 sequence (P81908 whole entry): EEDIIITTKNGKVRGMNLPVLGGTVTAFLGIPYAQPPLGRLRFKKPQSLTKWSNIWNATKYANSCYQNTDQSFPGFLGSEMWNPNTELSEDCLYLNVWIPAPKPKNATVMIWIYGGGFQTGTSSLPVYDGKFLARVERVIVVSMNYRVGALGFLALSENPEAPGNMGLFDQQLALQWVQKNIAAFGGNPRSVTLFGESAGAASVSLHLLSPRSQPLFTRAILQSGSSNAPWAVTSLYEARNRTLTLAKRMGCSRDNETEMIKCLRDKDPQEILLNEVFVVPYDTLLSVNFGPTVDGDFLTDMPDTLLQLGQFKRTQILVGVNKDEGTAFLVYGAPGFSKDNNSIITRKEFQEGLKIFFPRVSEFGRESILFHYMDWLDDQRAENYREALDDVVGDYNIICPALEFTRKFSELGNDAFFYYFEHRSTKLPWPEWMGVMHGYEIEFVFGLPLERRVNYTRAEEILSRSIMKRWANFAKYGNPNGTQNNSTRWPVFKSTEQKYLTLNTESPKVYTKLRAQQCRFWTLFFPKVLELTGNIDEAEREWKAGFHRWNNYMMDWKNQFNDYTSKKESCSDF

Row | SMILES | inhibition at 10 µM [1] [%] | inhibition at 10 µM ([2]; rat brain homogenates) [%] | IC50 [3, 9] | inhibition at 10 µM ([4]; from equine serum, 10 µM) [%] | IC50 ([3]; AChE IC50, from electric eel) | also measured
1 | NC(=O)CNCc1cc2ccccc2oc1=O [Compound 3a, N^2-[(2-oxo-2H-Chromen-3-yl)methyl]glycinamide] | < 5 | < 5 | 12 ± 1 µM | 6.2 | – | –
2 | CN(Cc1cccc(F)c1)Cc1cc2ccccc2oc1=O [Compound 3b, 3-{[(3-Fluorobenzyl)(methyl)amino]methyl}-2H-chromen-2-one hydrochloride] | < 5 | < 5 | – | 15 | 6.8 ± 0.1 µM | –
3 | C#CCN(C)Cc1cc2ccccc2oc1=O [Compound 3c, 3-{[Methyl(prop-2-yn-1-yl)amino]methyl}-2H-chromen-2-one] | – | – | 8.4 ± 0.5 µM | < 5 | – | IC50 [1, 10]: 7 ± 1.4 µM; IC50 ([2]; rat brain homogenates, determined after 30 min pre-incubation, read-out: MAO-B IC50): 0.377 ± 0.014 µM
4 | COc1ccc2cc(CN(C)Cc3cccc(F)c3)c(=O)oc2c1 [Compound 3d, 3-{[(3-Fluorobenzyl)(methyl)amino]methyl}-7-methoxy-2H-chromen-2-one] | 6 | < 5 | 6.6 ± 0.1 µM | 8.5 | – | –
5 | COc1ccc2cc(CN(C)Cc3cccc(C#N)c3)c(=O)oc2c1 [Compound 3e, 3-{[[(7-Methoxy-2-oxo-2H-chromen-3-yl)methyl](methyl)amino]methyl}benzonitrile] | 9.2 | < 5 | 8.4 ± 0.3 µM | < 5 | – | –
6 | C#CCN(C)Cc1cc2ccc(OC)cc2oc1=O [Compound 3f, 7-Methoxy-3-{[methyl(prop-2-yn-1-yl)amino]methyl}-2H-chromen-2-one hydrochloride] | – | – | – | – | 14 ± 1 µM | inhibition at 10 µM [4]: 13%
7 | COc1cc2cc(CN(C)Cc3cccc(Cl)c3)c(=O)oc2cc1OC [Compound 3g, 3-{[(3-Chlorobenzyl)(methyl)amino]methyl}-6,7-dimethoxy-2H-chromen-2-one hydrochloride] | 7 | < 5 | – | 19 | 4.4 ± 1.1 µM | –
8 | C#CCN(C)Cc1cc2cc(OC)c(OC)cc2oc1=O.Cl [Compound 3h, 6,7-Dimethoxy-3-{[methyl(prop-2-yn-1-yl)amino]methyl}-2H-chromen-2-one hydrochloride] | – | – | – | < 5 | 8.99 µM and 9 µM | P-gp substrate [5]: not likely to be a substrate for P-gp; also recorded: did not result in a glycoprotein-p (P-gp) substrate; Cytotoxicity (viability of SH-SY5Y cells) [6]: negligible cytotoxicity; also recorded: low cytotoxicity; inhibition at 10 µM [1, 10]: < 5%; IC50 [2]: 0.0028 ± 0.0004 µM; Neuroprotection against oligomycin-A ([7]; 0.1 µM compound, oligomycin-A 30 µM, 24 h co-incubation): moderate neuroprotection; also recorded: promising neuroprotective effect; Neuroprotection against rotenone ([7]; 0.1 µM compound, rotenone 75 µM, 24 h co-incubation): moderate neuroprotection; also recorded: promising neuroprotective effect; Neuroprotection (cell survival) ([7]; 1 µM compound, 24 h co-incubation with H2O2 195 µM, oligomycin-A 30 µM or rotenone 75 µM): no increase of cell survival; Papp A→B at 120 min, 75 µM [8]: 22.7 ×10⁻⁶ cm/s; Papp B→A at 120 min, 75 µM [8]: 21.8 ×10⁻⁶ cm/s
9 | CNCc1cc2cc(OC)c(OC)cc2oc1=O [Compound 3i, 6,7-Dimethoxy-3-[(methylamino)methyl]-2H-chromen-2-one hydrochloride] | < 5 | < 5 | – | 10 | 13 ± 1 µM | –
10 | COc1cc2cc(CNCc3ccccc3)c(=O)oc2cc1OC [Compound 3j, 3-[(Benzylamino)methyl]-6,7-dimethoxy-2H-chromen-2-one] | < 5 | < 5 | 2.78 µM and 2.8 µM | 27 | – | –
11 | COc1cc2cc(CNCc3ccc(C#N)cc3)c(=O)oc2cc1OC [Compound 3k, 4-({[(6,7-Dimethoxy-2-oxo-2H-chromen-3-yl)methyl]amino}methyl)benzonitrile] | 20 | < 5 | 8.4 ± 1.1 µM | 13 | – | –
12 | COc1cc2cc(CNCC(N)=O)c(=O)oc2cc1OC [Compound 3l, N^2-[(6,7-Dimethoxy-2-oxo-2H-chromen-3-yl)methyl]glycinamide] | < 5 | < 5 | 8 ± 1.2 µM | 10 | – | –
13 | CNC(=O)CNCc1cc2cc(OC)c(OC)cc2oc1=O [Compound 3m, N^2-[(6,7-Dimethoxy-2-oxo-2H-chromen-3-yl)methyl]-N^1-methylglycinamide] | < 5 | < 5 | 7.7 ± 0.4 µM | 11 | – | –
14 | C#CCN(C)Cc1cc2cc(OC)c(O)cc2oc1=O [Compound 8, 7-Hydroxy-6-methoxy-3-{[methyl(prop-2-yn-1-yl)amino]methyl}-2H-chromen-2-one] | – | – | 9.3 ± 0.4 µM | < 5 | – | inhibition at 10 µM [1, 10]: 35%; inhibition at 10 µM ([2]; rat brain homogenates, determined after 30 min pre-incubation): 11%

From paper PMC6273473 (Molecules, 2016)
